Literature values as cited in US20200138710A1, “COMPOSITIONS WITH PERMEATION ENHANCERS FOR DRUG DELIVERY” (Children's Medical Center Corporation, priority 2016, published 2020).

Log P | Compound
4.02 | CC[C@H]1OC(=O)[C@H](C)[C@@H](O[C@H]2C[C@@](C)(OC)[C@@H](O)[C@H](C)O2)[C@H](C)[C@@H](O[C@@H]2O[C@H](C)C[C@H](N(C)C)[C@H]2O)[C@](C)(O)C[C@@H](C)CN(C)[C@H](C)[C@@H](O)[C@]1(C)O [Azithromycin]
−1.47 | CO/N=C(\C(=O)N[C@@H]1C(=O)N2C(C(=O)O)=C(CSc3nc(=O)c(=O)[nH]n3C)CS[C@H]12)c1csc(N)n1 [Ceftriaxone]
−0.16 | CO/N=C(\C(=O)N[C@@H]1C(=O)N2C(C(=O)O)=C(COC(N)=O)CS[C@H]12)c1ccco1 [Cefuroxime]
